Experimental data reported in PubChem BioAssay AID248 (DTP/NCI, 2004).
Values joined by “and” are separate entries in the source; they are usually repeats but may differ in a detail not shown here. Equal entries are not always repeated. Inconclusive results and toxic doses are left out. No stated cut-off is given here; in the data, active means T/C of 150% or more; inactive means T/C below 125%.

Test system: L1210 leukemia ip in BDF1 mice, survival T/C
Test: NCI In Vivo Anticancer Drug Screen. Data for tumor model L1210 Leukemia (intraperitoneal) in B6D2F1 (BDF1) mice
Conditions: endpoint: mean survival time, higher = longer survival
How it was run: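 Ratio derived from survival: compound-dosed mice over vehicle-dosed mice, all bearing a transplantable tumor.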

[1] = dose: 100.0 mg/kg/injection, schedule: Q01DX009 (ip), vehicle: saline with Tween-80
[2] = dose: 200.0 mg/kg/injection, schedule: Q01DX009 (ip), vehicle: saline with Tween-80
[3] = dose: 100.0 mg/kg/injection, schedule: Q04DX003 (ip), vehicle: saline with Tween-80
[4] = dose: 200.0 mg/kg/injection, schedule: Q04DX003 (ip), vehicle: saline with Tween-80
[5] = dose: 400.0 mg/kg/injection, schedule: Q04DX003 (ip), vehicle: saline with Tween-80
[6] = dose: 100.0 mg/kg/injection, schedule: Q04DX003 (ip), vehicle: Klucel (hydroxypropylcellulose) (HPC)
[7] = dose: 200.0 mg/kg/injection, schedule: Q04DX003 (ip), vehicle: Klucel (hydroxypropylcellulose) (HPC)
[8] = dose: 100.0 mg/kg/injection, schedule: Q01DX001 (ip), vehicle: saline with Tween-80
[9] = dose: 200.0 mg/kg/injection, schedule: Q01DX001 (ip), vehicle: saline with Tween-80
[10] = dose: 400.0 mg/kg/injection, schedule: Q01DX001 (ip), vehicle: saline with Tween-80
[11] = dose: 400.0 mg/kg/injection, schedule: Q01DX009 (ip), vehicle: saline with Tween-80
[12] = dose: 50.0 mg/kg/injection, schedule: Q01DX001 (ip), vehicle: saline
[13] = dose: 100.0 mg/kg/injection, schedule: Q01DX001 (ip), vehicle: saline

Measured: T/C

Cc1[nH]c(=O)[nH]c(=O)c1N(CCF)CCCl
inactive: dose: 5.0 mg/kg/injection, schedule: Q01DX009 (ip), vehicle: Klucel (hydroxypropylcellulose) (HPC) 104 % of control and 107 % of control | dose: 5.0 mg/kg/injection, schedule: Q01DX009 (ip), vehicle: saline 106 % of control | dose: 9.0 mg/kg/injection, schedule: Q01DX009 (ip), vehicle: Klucel (hydroxypropylcellulose) (HPC) 108 % of control | dose: 10.0 mg/kg/injection, schedule: Q01DX009 (ip), vehicle: Klucel (hydroxypropylcellulose) (HPC) 112 % of control | dose: 10.0 mg/kg/injection, schedule: Q01DX009 (ip), vehicle: saline 112 % of control | dose: 14.0 mg/kg/injection, schedule: Q01DX009 (ip), vehicle: Klucel (hydroxypropylcellulose) (HPC) 120 % of control | dose: 20.0 mg/kg/injection, schedule: Q01DX009 (ip), vehicle: Klucel (hydroxypropylcellulose) (HPC) 110 % of control | dose: 20.0 mg/kg/injection, schedule: Q01DX009 (ip), vehicle: saline 124 % of control | dose: 23.0 mg/kg/injection, schedule: Q01DX009 (ip), vehicle: Klucel (hydroxypropylcellulose) (HPC) 123 % of control | dose: 23.0 mg/kg/injection, schedule: Q04DX003 (ip), vehicle: Klucel (hydroxypropylcellulose) (HPC) 108 % of control | dose: 39.0 mg/kg/injection, schedule: Q01DX009 (ip), vehicle: Klucel (hydroxypropylcellulose) (HPC) 94 % of control | dose: 39.0 mg/kg/injection, schedule: Q04DX003 (ip), vehicle: Klucel (hydroxypropylcellulose) (HPC) 116 % of control | dose: 65.0 mg/kg/injection, schedule: Q01DX001 (ip), vehicle: Klucel (hydroxypropylcellulose) (HPC) 104 % of control | dose: 108.0 mg/kg/injection, schedule: Q01DX001 (ip), vehicle: Klucel (hydroxypropylcellulose) (HPC) 110 % of control | dose: 108.0 mg/kg/injection, schedule: Q04DX003 (ip), vehicle: Klucel (hydroxypropylcellulose) (HPC) 96 % of control | dose: 180.0 mg/kg/injection, schedule: Q01DX001 (ip), vehicle: Klucel (hydroxypropylcellulose) (HPC) 120 % of control | dose: 180.0 mg/kg/injection, schedule: Q04DX003 (ip), vehicle: Klucel (hydroxypropylcellulose) (HPC) 96 % of control

Cc1ccc(SC(=O)CC(=O)Sc2ccc(C)cc2)cc1
inactive: dose: 50.0 mg/kg/injection, schedule: Q01DX009 (ip), vehicle: saline with Tween-80 91 % of control | [1] 94 % of control | [2] 97 % of control

CCCCCC/C(C)=N/O
inactive: [1] 94 % of control | [3] 106 % of control | [2] 103 % of control | [4] 95 % of control | [5] 98 % of control

CCCCCC/C=C/[N+]([O-])=NC(COC)C(C)O (stereo unspecified)
inactive: dose: 5.3 mg/kg/injection, schedule: Q01DX Z (ip), vehicle: carboxymethylcellulose (CMC) 103 % of control | dose: 8.0 mg/kg/injection, schedule: Q01DX Z (ip), vehicle: carboxymethylcellulose (CMC) 106 % of control | dose: 12.0 mg/kg/injection, schedule: Q01DX Z (ip), vehicle: carboxymethylcellulose (CMC) 101 % of control | dose: 18.0 mg/kg/injection, schedule: Q01DX Z (ip), vehicle: carboxymethylcellulose (CMC) 95 % of control

Cc1c(O)ccc2c1OCC2=O
inactive: dose: 100.0 mg/kg/injection, schedule: Q01DX001 (ip), vehicle: Klucel (hydroxypropylcellulose) (HPC) 91 % of control | [6] 104 % of control | dose: 200.0 mg/kg/injection, schedule: Q01DX001 (ip), vehicle: Klucel (hydroxypropylcellulose) (HPC) 94 % of control | [7] 98 % of control | dose: 400.0 mg/kg/injection, schedule: Q01DX001 (ip), vehicle: Klucel (hydroxypropylcellulose) (HPC) 98 % of control | dose: 400.0 mg/kg/injection, schedule: Q04DX003 (ip), vehicle: Klucel (hydroxypropylcellulose) (HPC) 93 % of control

O=[N+]([O-])c1cc2c(cc1Br)-c1ccccc1C2
inactive: dose: 100.0 mg/kg/injection, schedule: Q01DX005 (ip), vehicle: Klucel (hydroxypropylcellulose) (HPC) 98 % of control | dose: 100.0 mg/kg/injection, schedule: Q04DX002 (ip), vehicle: Klucel (hydroxypropylcellulose) (HPC) 93 % of control | dose: 200.0 mg/kg/injection, schedule: Q01DX005 (ip), vehicle: Klucel (hydroxypropylcellulose) (HPC) 94 % of control | dose: 200.0 mg/kg/injection, schedule: Q04DX002 (ip), vehicle: Klucel (hydroxypropylcellulose) (HPC) 111 % of control | dose: 400.0 mg/kg/injection, schedule: Q01DX005 (ip), vehicle: Klucel (hydroxypropylcellulose) (HPC) 122 % of control | dose: 400.0 mg/kg/injection, schedule: Q04DX002 (ip), vehicle: Klucel (hydroxypropylcellulose) (HPC) 117 % of control

CSc1cc(C)c(OC(=O)Nc2c(C)cccc2C)c(CO)c1
inactive: [3] 86 % of control | [4] 90 % of control

O=C(COc1ccccc1[N+](=O)[O-])Nc1cccnc1
inactive: [3] 104 % of control | [4] 98 % of control | [5] 98 % of control

COc1cccc(NC(=S)Nc2cccc(OC)c2)c1
inactive: [8] 108 % of control | [1] 95 % of control | dose: 100.0 mg/kg/injection, schedule: Q04DX002 (ip), vehicle: saline with Tween-80 91 % of control | [9] 104 % of control | [2] 92 % of control and 100 % of control | dose: 200.0 mg/kg/injection, schedule: Q04DX002 (ip), vehicle: saline with Tween-80 94 % of control and 96 % of control | [10] 101 % of control | [11] 90 % of control | dose: 400.0 mg/kg/injection, schedule: Q04DX002 (ip), vehicle: saline with Tween-80 104 % of control and 88 % of control

CN(C)C1=C(Cl)C(=O)c2ccccc2C1=O
inactive: [12] 102 % of control | [13] 100 % of control

Cc1cccc(N=P(c2ccccc2)(c2ccccc2)c2ccccc2)c1
inactive: dose: 50.0 mg/kg/injection, schedule: Q01DX009 (ip), vehicle: Klucel (hydroxypropylcellulose) (HPC) 96 % of control | dose: 100.0 mg/kg/injection, schedule: Q01DX009 (ip), vehicle: Klucel (hydroxypropylcellulose) (HPC) 88 % of control | [6] 95 % of control | [7] 96 % of control

CCCC(C)(Cl)C(=O)Nc1cccc(OC(=O)NC)c1 (stereo unspecified)
inactive: [3] 92 % of control | [4] 90 % of control | [5] 90 % of control

NC1C2C3CCC(C(C(=O)O)C3C(=O)O)C12 (stereo unspecified)
inactive: [3] 89 % of control | [4] 110 % of control | [5] 100 % of control

COc1ccc2c(c1OC)CC[N+]1=C3CCCCC3=C(N)CC21 (stereo unspecified)
inactive: [8] 97 % of control | [9] 97 % of control | [10] 96 % of control

C=CCc1cccc(C2N(Cc3ccccc3OC)CCCN2Cc2ccccc2OC)c1O
inactive: [12] 103 % of control | [13] 100 % of control | dose: 200.0 mg/kg/injection, schedule: Q01DX001 (ip), vehicle: saline 97 % of control | dose: 400.0 mg/kg/injection, schedule: Q01DX001 (ip), vehicle: saline 97 % of control

CCOP(=O)(OCC)OCc1cnc(SC)nc1N
inactive: [12] 99 % of control | [13] 108 % of control

CCC(=O)C(CCCCCCOc1ccc(OC)cc1Cl)C(=O)CC
inactive: [1] 92 % of control | [2] 89 % of control | [11] 87 % of control

Nc1nc2c(=O)[nH]cnc2n1C1OC(CO)C(O)C1O (stereo unspecified)
inactive: dose: 5.0 mg/kg/injection, schedule: Q01DX001 (ip), vehicle: saline 102 % of control | dose: 10.0 mg/kg/injection, schedule: Q01DX001 (ip), vehicle: saline 104 % of control | dose: 20.0 mg/kg/injection, schedule: Q01DX001 (ip), vehicle: saline 102 % of control

O=[N+]([O-])c1ccc(C=Nc2ccc(Cc3ccncc3)cc2)cc1
inactive: dose: 100.0 mg/kg/injection, schedule: Q01DX009 (ip), vehicle: carboxymethylcellulose (CMC) 93 % of control and 100 % of control | dose: 100.0 mg/kg/injection, schedule: Q04DX002 (ip), vehicle: carboxymethylcellulose (CMC) 104 % of control | dose: 100.0 mg/kg/injection, schedule: Q04DX003 (ip), vehicle: carboxymethylcellulose (CMC) 101 % of control | dose: 200.0 mg/kg/injection, schedule: Q01DX009 (ip), vehicle: carboxymethylcellulose (CMC) 97 % of control and 98 % of control | dose: 200.0 mg/kg/injection, schedule: Q04DX002 (ip), vehicle: carboxymethylcellulose (CMC) 98 % of control | dose: 200.0 mg/kg/injection, schedule: Q04DX003 (ip), vehicle: carboxymethylcellulose (CMC) 94 % of control | dose: 400.0 mg/kg/injection, schedule: Q01DX009 (ip), vehicle: carboxymethylcellulose (CMC) 95 % of control and 91 % of control | dose: 400.0 mg/kg/injection, schedule: Q04DX002 (ip), vehicle: carboxymethylcellulose (CMC) 93 % of control | dose: 400.0 mg/kg/injection, schedule: Q04DX003 (ip), vehicle: carboxymethylcellulose (CMC) 100 % of control
